Test results taken from article PMC6158096 (Molecular microbiology, 2018).
Where “and” joins values, the source holds several entries; their conditions need not be identical. Equal entries are not always repeated. Where two headings read alike, the source gives them in different places. Ends that are not written are not given here. * marks the point of attachment. FITC = O=C1OC2(c3ccc(O)cc3Oc3cc(O)ccc32)c2ccc(NC(=S)*)cc21; Ahx = NCCCCCC(=O)O

Experiments:
[1] = system: ComR;sXIP (ComS 11-17) (Streptococcus mutans UA159;Streptococcus mutans); experiment: fluorescence polarization
[2] = system: ComR;sXIP (ComS 11-17) (Streptococcus mutans UA159;Streptococcus mutans); experiment: fluorescence polarization; remark: listed apart in the source
[3] = system: ComR; experiment: Fluorescence polarization: FITC-labeled XrpA-N1 direct binding to ComR; design: species or system Streptococcus mutans; conditions: 10 nM FITC-labeled XrpA-N1, increasing concentrations of sXIP
[4] = system: SppA (SMU.508); experiment: Fluorescence polarization: FITC-labeled XrpA-N1 binding to SppA; design: species or system Streptococcus mutans; conditions: 10 nM probe, increasing purified protein, 10 μM sXIP
[5] = system: CcpA; experiment: Fluorescence polarization: FITC-labeled XrpA-N1 binding to CcpA; design: species or system Streptococcus mutans; conditions: 10 nM probe, increasing purified protein, 10 μM sXIP

ATGGGACATTTATGTCCTGTCCCCCACAGGACATAAATGTCCCAT [PcomX ECom-box stem-loop probe]
Kd [1]: 147 nM | Kd [2]: 169 nM and 165 nM

GLDWWSL [sXIP]
effect on fluorescent XrpA-N1 affinity for ComR [3]: no effect

{FITC-Ahx}-MIQNCISILRHFLITLK [FITC-labeled XrpA-N1]
interaction of FITC-labeled XrpA-N1 with SppA [4]: neither showed any ability to interact | interaction of FITC-labeled XrpA-N1 with CcpA [5]: neither showed any ability to interact
